“And” between values parts separate entries of the source, which are not always exact repeats. Equal values may be shown once. Inconclusive results and toxic doses are left out.

For this test, the system named is P388 leukemia ip, CD2F1 mice, survival T/C. Put plainly: NCI In Vivo Anticancer Drug Screen. Data for tumor model P388 Leukemia (intraperitoneal) in CD2F1 (CDF1) mice. Conditions: endpoint: median survival time, higher = longer survival. The procedure, abridged:
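Mice carrying the transplanted tumor received test compound or vehicle. Survival was recorded in each group, and the value is the treated-group measurement divided by that of the vehicle-treated control group.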

Where [1] appears, read: dose: 25.0 mg/kg/injection, schedule: Q01DX005 (ip), vehicle: Klucel (hydroxypropylcellulose) (HPC).
Setting [2] is: dose: 50.0 mg/kg/injection, schedule: Q01DX005 (ip), vehicle: Klucel (hydroxypropylcellulose) (HPC).
[3] abbreviates: dose: 100.0 mg/kg/injection, schedule: Q01DX005 (ip), vehicle: Klucel (hydroxypropylcellulose) (HPC).
Where [4] appears, read: dose: 200.0 mg/kg/injection, schedule: Q01DX005 (ip), vehicle: Klucel (hydroxypropylcellulose) (HPC).
[5] abbreviates: dose: 60.0 mg/kg/injection, schedule: Q01DX005 (ip), vehicle: saline with Tween-80.
Setting [6] is: dose: 120.0 mg/kg/injection, schedule: Q01DX005 (ip), vehicle: saline with Tween-80.
[7] abbreviates: dose: 240.0 mg/kg/injection, schedule: Q01DX005 (ip), vehicle: saline with Tween-80.
[8] abbreviates: dose: 50.0 mg/kg/injection, schedule: Q01DX009 (ip), vehicle: saline with Tween-80.
The mark [9] stands for this setting: dose: 100.0 mg/kg/injection, schedule: Q01DX009 (ip), vehicle: saline with Tween-80.
The mark [10] stands for this setting: dose: 200.0 mg/kg/injection, schedule: Q01DX009 (ip), vehicle: saline with Tween-80.
[11] abbreviates: dose: 50.0 mg/kg/injection, schedule: Q01DX005 (ip), vehicle: saline with Tween-80.
[12] abbreviates: dose: 100.0 mg/kg/injection, schedule: Q01DX005 (ip), vehicle: saline with Tween-80.
Where [13] appears, read: dose: 200.0 mg/kg/injection, schedule: Q01DX005 (ip), vehicle: saline with Tween-80.
Setting [14] is: dose: 25.0 mg/kg/injection, schedule: Q01DX009 (ip), vehicle: saline with Tween-80.

On to `O=C(/C=C/c1ccccc1)NCCC1(O)C(=O)Nc2ccccc21` (configuration not stated), for which the T/C is 102 % of control under setting [1], 100 % of control under setting [2], 90 % of control under setting [3] and 88 % of control under setting [4].
Consider `O=C(CC1=NC2NN(c3ccccc3)C(=O)C2=C1CC(=O)c1cccc([N+](=O)[O-])c1)c1cccc([N+](=O)[O-])c1` (configuration not stated), for which the T/C is, setting by setting: under setting [5], 95 % of control; under setting [6], 99 % of control; under setting [7], 86 % of control.
As to `CCOC(=O)C(C)ONC(=O)Nc1ccc(Cl)cc1` (configuration not stated), the T/C is, setting by setting: under setting [8], 105 % of control; under setting [9], 103 % of control; under setting [10], 95 % of control.
Turning to `Cc1ccc(N2CC(O)CN(c3ccc(C)cc3)CC(O)C2)cc1` (configuration not stated), the T/C by setting is: under setting [5], 97 % of control; under setting [6], 97 % of control; under setting [7], 94 % of control.
`COc1ccc2c3c([nH]c2c1)[C@H]1C[C@H]2[C@H](C[C@@H](O)[C@H](OC)[C@H]2CO)CN1CC3`: the T/C was 104 % of control under setting [2], 95 % of control under setting [3] and 90 % of control under setting [4].
Consider `Cc1c(NC(=S)Nc2ccccc2)c(=O)n(-c2ccccc2)n1C`, for which the T/C is, setting by setting: under setting [11], 93 % of control; under setting [12], 93 % of control; under setting [13], 89 % of control.
Consider `N#CCC(=O)N/N=C(/CC1(O)C(=O)Nc2c(Cl)ccc(Cl)c21)c1ccco1` (configuration not stated), for which the T/C is, setting by setting: (dose: 100.0 mg/kg/injection, schedule: Q04DX002 (ip), vehicle: saline with Tween-80) 97 % of control; (dose: 200.0 mg/kg/injection, schedule: Q04DX002 (ip), vehicle: saline with Tween-80) 89 % of control; (dose: 400.0 mg/kg/injection, schedule: Q04DX002 (ip), vehicle: saline with Tween-80) 89 % of control.
In the case of `O=C1c2ccccc2C(=O)c2c1cccc2N1CCOCC1`, the T/C (dose: 50.0 mg/kg/injection, schedule: Q01DX009 (ip), vehicle: Klucel (hydroxypropylcellulose) (HPC)) was 99 % of control and 100 % of control; the T/C (dose: 100.0 mg/kg/injection, schedule: Q01DX009 (ip), vehicle: Klucel (hydroxypropylcellulose) (HPC)) is 101 % of control; the T/C (dose: 200.0 mg/kg/injection, schedule: Q01DX009 (ip), vehicle: Klucel (hydroxypropylcellulose) (HPC)) was 103 % of control and 94 % of control.
As for `c1cc2cc(c1)CSCc1cccc(c1)CSCc1cccc(c1)CSC2`, the T/C is 96 % of control (dose: 50.0 mg/kg/injection, schedule: Q04DX002 (ip), vehicle: saline); 93 % of control (dose: 100.0 mg/kg/injection, schedule: Q04DX002 (ip), vehicle: saline); 93 % of control (dose: 200.0 mg/kg/injection, schedule: Q04DX002 (ip), vehicle: saline).
Take `CC1(C)CO/C(=C/C(=O)c2ccccc2)N1C(=O)c1ccccc1`: the T/C under setting [5] is 99 % of control and the T/C under setting [6] is 90 % of control.
As to `O=C(Nc1ccc(Sc2ccc(N=Nc3c(O)c(S(=O)(=O)O)cc4cc(S(=O)(=O)O)ccc34)cc2)cc1)c1ccc(N=Nc2ccc3c(S(=O)(=O)O)cccc3c2O)cc1`, the T/C under setting [11] was 101 % of control, the T/C under setting [12] was 102 % of control and the T/C under setting [13] is 95 % of control.
`O=S(=O)(/C=C/c1cccnc1)/C=C/c1cccnc1`: the T/C reads like this: under setting [14], 106 % of control; under setting [8], 100 % of control.
Consider `FC(F)(F)S.[Hg]`, for which the T/C was 95 % of control (dose: 2.5 mg/kg/injection, schedule: Q04DX003 (ip), vehicle: saline); 100 % of control (dose: 5.0 mg/kg/injection, schedule: Q04DX003 (ip), vehicle: saline); 95 % of control (dose: 10.0 mg/kg/injection, schedule: Q04DX003 (ip), vehicle: saline).
Turning to `CCN(CC)CCNc1ccc(CO)c2oc3ccc(O)cc3c(=O)c12`, the T/C was 171 % of control and 189 % of control under setting [11]; 214 % of control and 217 % of control under setting [12].
In the case of `C=CCC1(CC=C)CC1OCC` (configuration not stated), the T/C is, setting by setting: (dose: 50.0 mg/kg/injection, schedule: Q01DX005 (ip), vehicle: saline) 98 % of control; (dose: 100.0 mg/kg/injection, schedule: Q01DX005 (ip), vehicle: saline) 100 % of control; (dose: 200.0 mg/kg/injection, schedule: Q01DX005 (ip), vehicle: saline) 100 % of control.
With `C=C(C)C(=NC(C)(C)C)Nc1ccc(Cl)cc1`, the T/C by setting is: (dose: 12.5 mg/kg/injection, schedule: Q01DX005 (ip), vehicle: Klucel (hydroxypropylcellulose) (HPC)) 104 % of control and 106 % of control; under setting [1], 106 % of control and 109 % of control; under setting [14], 98 % of control and 100 % of control; under setting [2], 110 % of control and 116 % of control and 123 % of control; under setting [8], 100 % of control and 102 % of control and 109 % of control; under setting [3], 112 % of control and 116 % of control and 120 % of control. For the same molecule, the T/C is, setting by setting: under setting [9], 109 % of control and 111 % of control and 119 % of control; under setting [10], 118 % of control.
On to `CC1(C(=O)O)CCC2(C(=O)O)CCC3(C)C(=CCC4C5(C)CC(O)C(O)C(C)(CO)C5CCC43C)C2C1` (configuration not stated), for which the T/C is 100 % of control (dose: 6.25 mg/kg/injection, schedule: Q01DX009 (ip), vehicle: saline); 100 % of control (dose: 12.5 mg/kg/injection, schedule: Q01DX009 (ip), vehicle: saline); 96 % of control (dose: 25.0 mg/kg/injection, schedule: Q01DX009 (ip), vehicle: saline).
In the case of `N#Cc1ccc(NN=O)cc1`, the T/C reads like this: (dose: 3.12 mg/kg/injection, schedule: Q01DX009 (ip), vehicle: water) 100 % of control; (dose: 6.25 mg/kg/injection, schedule: Q01DX009 (ip), vehicle: water) 105 % of control; (dose: 12.5 mg/kg/injection, schedule: Q01DX009 (ip), vehicle: water) 105 % of control; (dose: 25.0 mg/kg/injection, schedule: Q01DX009 (ip), vehicle: water) 117 % of control; (dose: 100.0 mg/kg/injection, schedule: Q01DX009 (ip), vehicle: water) 117 % of control.
`Cc1nn(-c2ccccc2)nc1C(=O)Nc1ccc2[nH]ncc2c1`: the T/C was 91 % of control under setting [5], 94 % of control under setting [6] and 86 % of control under setting [7].
With `CCN(CC)c1ccc([P+](=O)O)cc1`, the T/C is, setting by setting: (dose: 50.0 mg/kg/injection, schedule: Q01DX009 (ip), vehicle: saline) 108 % of control; (dose: 100.0 mg/kg/injection, schedule: Q01DX009 (ip), vehicle: saline) 100 % of control.
As for `CC(C)NCC(O)COc1c2ccccc2nc2ccccc12` (configuration not stated), the T/C runs as follows: under setting [11], 101 % of control; under setting [12], 95 % of control; under setting [13], 102 % of control.
For the molecule `CCOP(O)(=S)OCC.[Sm]`, the T/C is, setting by setting: (dose: 100.0 mg/kg/injection, schedule: Q01DX001 (ip), vehicle: Klucel (hydroxypropylcellulose) (HPC)) 88 % of control; (dose: 200.0 mg/kg/injection, schedule: Q01DX001 (ip), vehicle: Klucel (hydroxypropylcellulose) (HPC)) 88 % of control; (dose: 400.0 mg/kg/injection, schedule: Q01DX001 (ip), vehicle: Klucel (hydroxypropylcellulose) (HPC)) 94 % of control.
`O=C(OCC1N=C1c1ccccc1)c1ccc([N+](=O)[O-])cc1` (configuration not stated): the T/C (dose: 50.0 mg/kg/injection, schedule: Q04DX003 (ip), vehicle: suspension in saline) is 99 % of control; the T/C (dose: 100.0 mg/kg/injection, schedule: Q04DX003 (ip), vehicle: suspension in saline) is 98 % of control; the T/C (dose: 200.0 mg/kg/injection, schedule: Q04DX003 (ip), vehicle: suspension in saline) is 100 % of control.
`CSc1nc(NC2OC(CO)C(O)C(O)C2O)c(Cl)c(=O)n1C` (configuration not stated): the T/C (dose: 15.0 mg/kg/injection, schedule: Q01DX005 (ip), vehicle: saline with Tween-80) was 94 % of control; the T/C (dose: 30.0 mg/kg/injection, schedule: Q01DX005 (ip), vehicle: saline with Tween-80) is 95 % of control; the T/C under setting [5] is 91 % of control and 97 % of control; the T/C under setting [6] is 100 % of control.

The values above are taken from PubChem BioAssay AID330 (DTP/NCI, 2004).
